In assay [1] the test system is acetylcholine activity on heart rate. As to the kind of experiment: Inhibition of the effect of acetylcholine on heart rate in guinea pigs. The assay is classed as in vivo, guinea pig. Conditions: Cavia porcellus, 5 min. As for the experimental part: (§1) The objective of the methods was to confirm the selectivity of the antimuscarinic effect. Those substances which had been selected on the basis of "in vitro" tests were tested for their 3. […] M1 /M2 SELECTIVITY IN THE RAT 3. INHIBITION OF THE EFFECT OF ACETYLCHOLINE ON THE BLADDER, BRONCHI AND HEART RATE IN GUINEA PIGS 5 minutes after the administration of the test substance, 10 microgram/kg of acetylcholine were simultaneously injected intravenously and intra-arterially into anaesthetised guinea pigs. The heart rate was recorded directly by extracorporeal derivation of the ECG, the expiration resistance according to Konzett-Ro ler and contraction of the exposed bladder. In order to determine the inhibition of the acetylcholine activity on the organs under investigation, dosage/activity curves were recorded and from them -log ED50 values were determined.

For assay [2], the target named is T1, muscarinic receptors (heart) (Rattus norvegicus, UniProt P10980).
T1 sequence (P10980 1-466): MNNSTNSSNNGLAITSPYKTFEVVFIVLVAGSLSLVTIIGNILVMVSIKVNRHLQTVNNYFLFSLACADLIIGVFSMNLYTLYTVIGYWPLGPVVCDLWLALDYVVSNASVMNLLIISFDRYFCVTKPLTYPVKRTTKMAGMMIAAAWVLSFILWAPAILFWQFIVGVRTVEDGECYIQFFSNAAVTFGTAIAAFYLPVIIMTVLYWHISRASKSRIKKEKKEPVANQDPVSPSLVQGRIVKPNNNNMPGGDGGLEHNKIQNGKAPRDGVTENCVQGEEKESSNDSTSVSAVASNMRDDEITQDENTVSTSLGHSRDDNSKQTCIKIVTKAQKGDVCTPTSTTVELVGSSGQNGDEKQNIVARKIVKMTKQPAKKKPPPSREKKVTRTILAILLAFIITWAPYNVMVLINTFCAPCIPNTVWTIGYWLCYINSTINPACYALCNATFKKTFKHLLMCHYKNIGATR
The assay can be described thus: biochemical. As to conditions: whole heart homogenate; 0.3 nanomolar 3H-NMS; 30 C; 45 minutes; pH 7.4; read-out: Receptor Binding Tests IC50, Heart. Details: species or system male Sprague-Dawley rats.

Assay [3] has as its system acetylcholine activity on the bronchi. The assay can be described thus: Inhibition of the effect of acetylcholine on the bronchi in guinea pigs. The assay is classed as in vivo. Conditions: Cavia porcellus, 5 min; anaesthetised guinea pig; 5 minutes after test substance; 10 microgram/kg acetylcholine; expiration resistance; read-out: -log ED50, Bronchi (converted). As for the experimental part:
as §1

The next assay has as its system secretion of saliva. The assay can be described thus: Salivation-inhibiting effect in the rat (pilocarpine-induced saliva secretion). The assay is classed as in vivo, male THOM rats. Conditions: iv; urethane-anaesthetised rat; i.v.; pilocarpine 2 mg/kg s.c.; read-out: -log ED50, Salivation (converted). The method, then: (§2) The objective of the methods was to confirm the selectivity of the antimuscarinic effect. Those substances which had been selected on the basis of "in vitro" tests were tested for their
2. Salivation-inhibiting effect on the rat and
2. SALIVATION-INHIBITING EFFECT IN THE RAT
The secretion of saliva was initiated by subcutaneous administration of 2 mg/kg of pilocarpine. The saliva was absorbed with blotting paper and the surface area covered was measured every 5 minutes by planimetry. The dosage of the substance which reduced the volume of saliva by 50% was determined graphically. For the results see Table II.

The test system of assay [4] is acetylcholine activity on the bladder. The assay can be described thus: Inhibition of the effect of acetylcholine on the bladder in guinea pigs. Conditions: Cavia porcellus, 5 min. The class given is in vivo, guinea pig. The method, then: as §1
The target of the next assay is T2, M2 (Rattus norvegicus, UniProt P10980).
T2 construct: The bradycardia caused by vagus stimulation; from tissue; host or cells: heart of the living rat (male THOM rats, in vivo)
T2 sequence (P10980 1-466): T1 sequence (P10980 1-466)
The assay can be described thus: M1/M2 selectivity in the rat: inhibition of vagal bradycardia (M2). The assay is classed as in vivo, male THOM rats. Conditions: iv, 5 min.
Source text: (§3) B. Investigation of functional selectivity of the antimuscarinic effect
(§4) Substances with antimuscarinic properties inhibit the effects of agonists supplied exogenically or of acetylcholine, which is released from cholinergic nerve endings. The following is a description of some methods that are suitable for the detection of cardioselective antimuscarinic agents.
as §2
(§5) 1. M1 /M2 selectivity in the rat,
(§6) 3. Inhibition of the acetylcholine effect on the bladder, bronchi and heart rate in the guinea pig. 1. M1 /M2 SELECTIVITY IN THE RAT
The method used was described by Hammer and Giachetti (Life Sciences 31, 2991-2998 (1982)). 5 minutes after the intravenous injection of increasing doses of the substance, either the right vagus was electrically stimulated (frequency: 25 Hz; pulse width: 2ms; duration of stimulus: 30s; voltage: supramaximal) or 0.3 mg/kg of McN-A-343 were intravenously injected into male THOM rats. The bradycardia caused by vagus stimulation and the rise in blood pressure caused by McN-A-343 were determined. The dosage of the substances which reduced either the vagal bradycardia (M2) or the rise in blood pressure (M1) by 50% was determined graphically. For the results see Table II.

The target in assay [5] is muscarinic receptors (submandibular gland) (Rattus norvegicus, UniProt P08483). The assay can be described thus: biochemical. Details: species or system male Sprague-Dawley rats. Conditions: submandibular gland homogenate; 0.3 nanomolar 3H-NMS; 30 C; 45 minutes; pH 7.4; read-out: Receptor Binding Tests IC50, Submandibular gland. The method, then:
(§7) A. Studies of binding to muscarinic receptors:
(§8) In vitro measurement of the IC50 value
(§9) The organs were donated by male Sprague-Dawley rats weighing 180-220 g. After the heart and submandibular gland and cerebral cortex had been removed, all other steps were carried out in ice cold Hepes HCl buffer (pH 7.4; 100 millimolar NaCl, 10 millimolar MgClz). The whole heart was cut up with scissors. All the organs were then homogenised in a Potter apparatus.
(§10) For the binding test the homogenised organs were diluted as follows:
Submandibular gland 1:400
(§11) The homogenised organs were incubated at a certain concentration of the radioligand and at a series of concentrations of the non-radioactive test substances in an Eppendorf centrifuge tube at 30 C. Incubation lasted 45 minutes. The radioligand used was 0.3 nanomolar 3H-N-methylscopolamine (^3 H-NMS). Incubation was ended by the addition of ice cold buffer followed by vacuum filtration. The filters were rinsed with cold buffer and their radioactivity was determined. It represents the sum of specific and non-specific binding of ^3 H-NMS. The proportion of non-specific binding was defined as the radioactivity which was bound in the presence of 1 micromolar quinuclidinylbenzylate. Each measurement was taken four times. The IC50 values of the non-labelled test substances were determined graphically. They represent that concentration of test substance at which the specific binding of 3H-NMS to the muscarinic receptors in the various organs was inhibited by 50%.

The target in a further assay is T3, M1 (Rattus norvegicus, UniProt P08482).
T3 construct: from tissue; host or cells: living rat (male THOM rats, in vivo); sympathetic ganglia by own knowledge
T3 sequence (P08482 1-460): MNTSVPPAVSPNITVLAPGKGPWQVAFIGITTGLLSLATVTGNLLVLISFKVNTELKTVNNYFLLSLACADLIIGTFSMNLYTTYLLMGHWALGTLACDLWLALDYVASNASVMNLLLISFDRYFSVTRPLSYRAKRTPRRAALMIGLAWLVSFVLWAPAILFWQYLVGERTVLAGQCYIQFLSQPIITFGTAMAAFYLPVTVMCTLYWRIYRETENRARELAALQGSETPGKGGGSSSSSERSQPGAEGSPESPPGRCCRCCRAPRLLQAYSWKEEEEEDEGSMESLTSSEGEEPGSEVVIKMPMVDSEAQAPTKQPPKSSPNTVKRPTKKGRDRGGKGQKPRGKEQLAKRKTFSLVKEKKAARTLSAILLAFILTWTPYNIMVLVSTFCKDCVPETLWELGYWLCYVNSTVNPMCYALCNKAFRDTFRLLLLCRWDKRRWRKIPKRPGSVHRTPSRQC
The assay can be described thus: M1/M2 selectivity in the rat: inhibition of McN-A-343-induced rise in blood pressure (M1). The class given is in vivo, male THOM rats. Conditions: iv, 5 min.
Source text: as §3, §4, §2, §5, §6
The dosage of the substances which reduced either the vagal bradycardia (M2) or the rise in blood pressure (M1) by 50% was determined graphically. For the results see Table II.

Assay [6] addresses muscarinic receptors (cerebral cortex). As to the kind of experiment: Muscarinic receptor binding, cerebral cortex (displacement of 3H-N-methylscopolamine). The arrangement: species or system male Sprague-Dawley rats. As to conditions: cerebral cortex homogenate; 0.3 nanomolar 3H-NMS; 30 C; 45 minutes; pH 7.4; read-out: Receptor Binding Tests IC50, Cortex. The method, then: as §7, §8, §9, §10
as §11, with “They represent that concentration of test substance at which the specific binding of 3H-NMS to the muscarinic receptors in the various organs was inhibited by 50%.” left out
Background: Loss of bound radioactivity is the signal in a displacement assay; it reports binding, not function.

The mark [7] stands for this setting: anaesthetised guinea pig, 5 minutes after test substance, 10 microgram/kg acetylcholine, read-out: -log ED50, Heart (converted).
[8] abbreviates: anaesthetised guinea pig, 5 minutes after test substance, 10 microgram/kg acetylcholine, contraction of exposed bladder, read-out: -log ED50, Bladder (converted).
[9] abbreviates: i.v., 5 minutes after injection, vagus stimulation 25 Hz, read-out: -log ED50, Heart (vagal bradycardia, M2) (converted).
[10] abbreviates: i.v., 5 minutes after injection, 0.3 mg/kg McN-A-343 i.v., read-out: -log ED50, Blood pressure (McN-A-343 pressor response, M1) (converted).

Where a name gives a salt, the structure may show the parent alone. Read-outs that look alike come from different tables or passages of the source.

Consider five molecules from US5002943A, “Condensed diazepinones, processes for preparing them and pharmaceutical compositions containing these compounds” (priority 1988, dated 1991).

Sequence of muscarinic receptors (submandibular gland) (P08483 whole entry): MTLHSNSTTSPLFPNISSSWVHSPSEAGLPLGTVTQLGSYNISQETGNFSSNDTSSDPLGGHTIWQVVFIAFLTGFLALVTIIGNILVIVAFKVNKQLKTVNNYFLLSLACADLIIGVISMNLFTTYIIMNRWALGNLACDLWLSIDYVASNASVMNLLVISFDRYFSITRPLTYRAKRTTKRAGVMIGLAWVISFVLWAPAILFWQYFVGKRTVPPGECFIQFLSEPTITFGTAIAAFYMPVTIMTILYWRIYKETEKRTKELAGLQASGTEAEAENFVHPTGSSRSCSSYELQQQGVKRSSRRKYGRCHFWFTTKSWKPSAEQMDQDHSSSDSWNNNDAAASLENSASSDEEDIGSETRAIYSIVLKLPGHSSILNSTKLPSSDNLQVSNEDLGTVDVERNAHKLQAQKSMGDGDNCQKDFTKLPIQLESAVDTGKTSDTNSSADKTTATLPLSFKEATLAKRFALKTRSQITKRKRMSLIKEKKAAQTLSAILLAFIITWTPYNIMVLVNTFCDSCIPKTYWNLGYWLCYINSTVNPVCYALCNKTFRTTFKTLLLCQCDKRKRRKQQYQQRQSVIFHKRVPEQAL

For orientation: ED50 means the dose at which the effect has come halfway, by size or by number of responders. The IC50 is the concentration that inhibits the measured activity by half. Take `CN(CCC1CCCN1C)CC(=O)N1c2ccccc2C(=O)Nc2cccnc21` (stereo not drawn) [Substance A, hydrochloride]: the ED50 in assay [1] (setting [7]) was 0.02 µmol/kg; in assay [3], 0.0251 µmol/kg; with secretion of saliva it was 0.158 µmol/kg; in assay [4] (setting [8]) it was 0.141 µmol/kg; on M2 (setting [9]), 0.0123 µmol/kg; at M1 (setting [10]), 0.0871 µmol/kg. The values for the IC50 in assay [2] and in assay [5] were 9 nM and 80 nM, respectively.

Turning to `CCN(CCC1CCCN1C)CC(=O)N1c2cc(Cl)ccc2C(=O)Nc2cccnc21` (stereo not drawn) [Substance B, 9-chloro-5,11-dihydro-11[[[2-(1-methyl-2-pyrrolidinyl)ethyl]ethylamino]acetyl]-6H-pyrido-[2,3-b][1,4]benzodiazepin-6-one], the ED50 was 0.1 µmol/kg in assay [1] (setting [7]), 0.191 µmol/kg in [3] and 0.832 µmol/kg in assay [4] (setting [8]). Besides, the IC50 worked out at 10 nM in assay [2], 70 nM in assay [6] and 100 nM in [5].

Take `CN(CCC1CCCN1C)CC(=O)N1c2ccccc2NC(=O)c2ccccc21` (stereo not drawn) [Substance C, 5,10-dihydro-5-[[[2-(1-methyl-2-pyrrolidinyl)-ethyl]methylamino]acetyl]-11H-dibenzo[b,e][1,4]-diazepin-11-one hydrochloride]: the ED50 in assay [1] (setting [7]) is 0.0288 µmol/kg; in [3], 0.0295 µmol/kg; in assay [4] (setting [8]) it was 0.234 µmol/kg. The IC50 in [2] is 3 nM; in assay [6] it was 8 nM; in assay [5] it was 20 nM.

For `CCN(CC)CC1CCCCN1CC(=O)N1c2ccccc2C(=O)Nc2cccnc21` (stereo not drawn) [Substance D, 11-[[2-[(diethylamino)methyl]-1-piperidinyl]acetyl]-5,11-dihydro-6H-pyrido[2,3-b][1,4]benzodiazepin-6-one], the results for the ED50 with secretion of saliva, at M2 (setting [9]) and at M1 (setting [10]) were 10 µmol/kg, 0.38 µmol/kg and 2.34 µmol/kg, respectively.

Consider `CN1C2CCC1CC(OC(=O)C(CO)c1ccccc1)C2` (stereo not drawn) [Substance F, atropine, reference compound], for which the ED50 in assay [1] (read-out: -log ED50, Heart) is 0.02 µmol/kg; in [4] (read-out: -log ED50, Bladder), 0.0933 µmol/kg; at M2 (read-out: -log ED50, Heart (vagal bradycardia, M2)), 0.0115 µmol/kg; at M1 (read-out: -log ED50, Blood pressure (McN-A-343 pressor response, M1)), 0.0457 µmol/kg.
